# Experimental data taken from article PMC7217150, “Synthesis, Modification, and Biological Evaluation of a Library of Novel Water‐Soluble Thiopyridone‐Based Organometallic Complexes and Their Unexpected (Biological) Behavior” (Chemistry (Weinheim an Der Bergstrasse, Germany), 2020).
# Experiments:
# [1] = test system: SW480; test: Cell cycle distribution, flow cytometry with propidium iodide; assay type: cell-based, human; conditions: for Cell cycle distribution G1, % / Cell cycle distribution G2/M, % / Cell cycle distribution S, %: 24 h, mean ± SD; for Relative change in cell cycle distribution G1, % / Relative change in cell cycle distribution G2/M, % / Relative change in cell cycle distribution S, %: difference to untreated control
# Description: (§1) The influence of two ligands, as well as seven complexes on cell cycle distribution was tested in two of the cancer cell lines (SW480, CH1/PA‐1) by means of flow cytometry. The cell cycle distribution (G1, S, G2/M phase in %; Table S37) was investigated upon DNA staining with propidium iodide.
# (§2) CH1/PA‐1 and SW480 cells were harvested by trypsinization, 8×10^4 and 1.2×10^5 cells per well were seeded into 12‐well plates, respectively. The cells were allowed to attach and resume proliferation for 24 h after the seeding. […] After continuous exposure for 24 h at 37 °C and under 5 % CO2, the cells were harvested by trypsinization and centrifuged at 300 g for 3 min. The cells were washed with PBS (1 mL) and resuspended in propidium iodine (PI) containing HSF buffer (600 μL; 0.1 % Triton X‐100, 0.1 % sodium citrate, 50 μg mL^−1 PI in PBS). After incubation overnight at 4 °C in the dark, 5×10^3 cells were measured by flow cytometry with a Millipore Guava easyCyte 8HT instrument (Luminex, USA). Data were evaluated by means of FlowJo software (Tree Star) using Watson Pragmatic algorithms.60 The fitting of the curve was chosen to keep the root mean square error between 1.0 and 2.0, alongside with good fitting visual model.
# [2] = test system: CH1/PA‐1; test: as above; assay type: cell-based, human; conditions: for Cell cycle distribution G1, % / Cell cycle distribution S, % / Cell cycle distribution G2/M, %: 24 h, mean ± SD
# Description: as §1, §2
# [3] = CH1/PA-1, 0.25 µM, difference to untreated control
# [4] = CH1/PA-1, 0.5 µM, difference to untreated control
# [5] = CH1/PA-1, 1 µM, difference to untreated control
compound,measurement,setting,value
"COc1cc([C@@H]2c3cc4c(cc3[C@@H](O[C@@H]3O[C@@H]5CO[C@@H](C)O[C@H]5[C@H](O)[C@H]3O)[C@H]3COC(=O)[C@H]23)OCO4)cc(OC)c1O [Etoposide, reference compound]","Cell cycle distribution G1, %","[1]; SW480, 0.25 µM",9 ± 2%
same,"Cell cycle distribution G2/M, %","[1]; SW480, 0.25 µM",65 ± 10%
same,"Cell cycle distribution S, %","[1]; SW480, 0.25 µM",26 ± 4%
same,"Relative change in cell cycle distribution G1, %","[1]; SW480, 0.25 µM",-39%
same,"Relative change in cell cycle distribution G2/M, %","[1]; SW480, 0.25 µM",46%
same,"Relative change in cell cycle distribution S, %","[1]; SW480, 0.25 µM",-7%
same,"Cell cycle distribution G1, %","[1]; SW480, 0.5 µM",3 ± 1%
same,"Cell cycle distribution G2/M, %","[1]; SW480, 0.5 µM",78 ± 6%
same,"Cell cycle distribution S, %","[1]; SW480, 0.5 µM",19 ± 7%
same,"Relative change in cell cycle distribution G1, %","[1]; SW480, 0.5 µM",-45%
same,"Relative change in cell cycle distribution G2/M, %","[1]; SW480, 0.5 µM",59%
same,"Relative change in cell cycle distribution S, %","[1]; SW480, 0.5 µM",-14%
same,"Cell cycle distribution G1, %","[1]; SW480, 1 µM",6 ± 4%
same,"Cell cycle distribution G2/M, %","[1]; SW480, 1 µM",65 ± 10%
same,"Cell cycle distribution S, %","[1]; SW480, 1 µM",30 ± 15%
same,"Relative change in cell cycle distribution G1, %","[1]; SW480, 1 µM",-42%
same,"Relative change in cell cycle distribution G2/M, %","[1]; SW480, 1 µM",46%
same,"Relative change in cell cycle distribution S, %","[1]; SW480, 1 µM",-3%
same,"Cell cycle distribution G1, %","[2]; CH1/PA-1, 0.25 µM",8 ± 5%
same,"Cell cycle distribution S, %","[2]; CH1/PA-1, 0.25 µM",15 ± 4%
same,"Relative change in cell cycle distribution G1, %",[2]; [3],-32%
same,"Relative change in cell cycle distribution G2/M, %",[2]; [3],53%
same,"Relative change in cell cycle distribution S, %",[2]; [3],-21%
same,"Cell cycle distribution G1, %","[2]; CH1/PA-1, 0.5 µM",4 ± 1%
same,"Cell cycle distribution G2/M, %","[2]; CH1/PA-1, 0.5 µM",85 ± 5%
same,"Cell cycle distribution S, %","[2]; CH1/PA-1, 0.5 µM",10 ± 3%
same,"Relative change in cell cycle distribution G1, %",[2]; [4],-36%
same,"Relative change in cell cycle distribution G2/M, %",[2]; [4],61%
same,"Cell cycle distribution G1, %","[2]; CH1/PA-1, 1 µM",3 ± 3%
same,"Cell cycle distribution G2/M, %","[2]; CH1/PA-1, 1 µM",87 ± 6%
same,"Cell cycle distribution S, %","[2]; CH1/PA-1, 1 µM",10 ± 5%
same,"Relative change in cell cycle distribution G1, %",[2]; [5],-37%
same,"Relative change in cell cycle distribution G2/M, %",[2]; [5],63%
